Assays:
Balb-C mice [1] = assay: Example 112: luciferase mRNA electroporation dose response, total flux (Tables 179, 180); settings: mouse, in vivo
Method: The mice undergoing electroporation were subjected to electroporation (EP) using the […]™ instrument (Harvard Apparatus/BTX®, Holliston, Mass.), as outlined in Table 179, immediately after the administration of luciferase or the control.
All of the mice are imaged at 3 hours, 24 hours, 48 hours, 168 hours, 336 hours and 504 hours post-administration of luciferase modified mRNA. Twenty minutes prior to imaging, the mice are injected intraperitoneally with a D-luciferin solution at 150 mg/kg. Animals are then anesthetized and images were acquired with an IVIS Lumina II imaging system (Perkin Elmer). Bioluminescence is measured as total flux (photons/second) of the entire mouse.

Balb-C mice [2] = assay: Example 85: lipoplexed luciferase mRNA IV, IM, SC, flux and organ flux (Tables 131, 132); type: in vivo; settings: 0.10 mg/kg; for Flux (average total flux, entire mouse): Balb-C mice; for Organ Flux, Inj. Site: imaged at 6 hours; for Organ Flux, Kidney / Organ Flux, Liver / Organ Flux, Lung / Organ Flux, Spleen: organs imaged at 6 hours
Method: The formulation was administered intravenously (I.V.), intramuscularly (I.M.) or subcutaneously (S.C.) to Balb-C mice at a dose of 0.10 mg/kg.
Twenty minutes prior to imaging, mice were injected intraperitoneally with a D-luciferin solution at 150 mg/kg. Animals were then anesthetized and images were acquired with an IVIS Lumina II imaging system (Perkin Elmer). Bioluminescence was measured as total flux (photons/second) of the entire mouse. The mice were imaged at 8 hours, 24 hours and 48 hours after dosing and the average total flux (photons/second) was measured for each route of administration and chemical modification. The background signal was about 3.91E+05 p/s. Organs were imaged at 6 hours and the average total flux (photons/second) was measured for the liver, spleen, lung and kidney. A control for each organ was also analyzed.

Balb-C mice [3] = assay: Example 76: modified luciferase mRNA in PBS IM, SC in mice, total flux (Tables 115, 116); type: in vivo; settings: 2.5 mg/kg, PBS (pH 7.4)
Method: The mice were imaged at 2 hours, 8 hours, 24 hours, 48 hours, 72 hours, 96 hours, 120 hours and 144 hours for intramuscular delivery and 2 hours, 8 hours, 24 hours, 48 hours, 72 hours, 96 hours and 120 hours for subcutaneous delivery. Twenty minutes prior to imaging, mice were injected intraperitoneally with a D-luciferin solution at 150 mg/kg. Animals were then anesthetized and images were acquired with an IVIS Lumina II imaging system (Perkin Elmer). Bioluminescence was measured as total flux (photons/second) of the entire mouse. The average total flux (photons/second) for intramuscular administration is shown in Table 115 and the average total flux (photons/second) for subcutaneous administration is shown in Table 116. The background signal was 3.79E+05 (p/s). The peak expression for intramuscular administration was seen between 24 and 48 hours for all chemistry and expression was still detected at 144 hours.

Balb-C mice [4] = assay: Example 108: luciferase mRNA IM with electroporation, total flux (Tables 174-176); type: in vivo; settings: 2.5 mg/kg IM with electroporation
Method: The mice of Group 2 were treated with electroporation (EP) using the […]™ instrument (Harvard Apparatus/BTX®, Holliston, Mass.) immediately after administration of luciferase.
[…] Twenty minutes prior to imaging, the mice were injected intraperitoneally with a D-luciferin solution at 150 mg/kg. Animals were then anesthetized and images were acquired with an IVIS Lumina II imaging system (Perkin Elmer). Bioluminescence was measured as total flux (photons/second) of the entire mouse.

Balb-C mice [5] = assay: Example 113: FGF21 mRNA IM with or without electroporation, serum FGF21 (Tables 181, 182); type: in vivo; settings: 5 mg/kg IM
Method: The mice undergoing electroporation were subjected to electroporation (EP) using the […]′ instrument (Harvard Apparatus/BTX®, Holliston, Mass.), as outlined in Table 181, immediately after the administration of FGF21 mRNA or the control.
Serum was collected from the mice at 2 hours and 8 hours.

Molecule: Luciferase modified mRNA: luciferase mRNA, SEQ ID NO: 14, fully modified with 5-methylcytosine and 1-methylpseudouridine, in PBS (pH 7.4)
- protein expression with vs without electroporation (Balb-C mice [1]): increase protein expression
- Flux (average total flux, entire mouse) (Balb-C mice [2]; I.M., 8 hrs): 2.53E+06 p/s
- Flux (average total flux, entire mouse) (Balb-C mice [2]; I.M., 24 hrs): 7.84E+05 p/s
- Flux (average total flux, entire mouse) (Balb-C mice [2]; I.M., 48 hrs): 6.59E+05 p/s
- Organ Flux, Inj. Site (Balb-C mice [2]; I.M.): 1.20E+06 p/s
- Organ Flux, Kidney (Balb-C mice [2]; I.M.): 1.56E+04 p/s
- Organ Flux, Liver (Balb-C mice [2]; I.M.): 1.72E+04 p/s
- Organ Flux, Lung (Balb-C mice [2]; I.M.): 1.99E+04 p/s
- Organ Flux, Spleen (Balb-C mice [2]; I.M.): 1.76E+04 p/s
- Flux (average total flux, entire mouse) (Balb-C mice [2]; I.V., 8 hrs): 1.78E+06 p/s
- Flux (average total flux, entire mouse) (Balb-C mice [2]; I.V., 24 hrs): 7.13E+05 p/s
- Flux (average total flux, entire mouse) (Balb-C mice [2]; I.V., 48 hrs): 3.76E+05 p/s
- Organ Flux, Kidney (Balb-C mice [2]; I.V.): 1.77E+04 p/s
- Organ Flux, Liver (Balb-C mice [2]; I.V.): 1.48E+05 p/s
- Organ Flux, Lung (Balb-C mice [2]; I.V.): 1.93E+06 p/s
- Organ Flux, Spleen (Balb-C mice [2]; I.V.): 5.00E+06 p/s
- Flux (average total flux, entire mouse) (Balb-C mice [2]; S.C., 8 hrs): 6.48E+06 p/s
- Flux (average total flux, entire mouse) (Balb-C mice [2]; S.C., 24 hrs): 7.15E+06 p/s
- Flux (average total flux, entire mouse) (Balb-C mice [2]; S.C., 48 hrs): 3.20E+06 p/s
- Organ Flux, Inj. Site (Balb-C mice [2]; S.C.): 8.29E+04 p/s
- Organ Flux, Kidney (Balb-C mice [2]; S.C.): 1.14E+04 p/s
- Organ Flux, Liver (Balb-C mice [2]; S.C.): 1.20E+04 p/s
- Organ Flux, Lung (Balb-C mice [2]; S.C.): 1.38E+04 p/s
- Organ Flux, Spleen (Balb-C mice [2]; S.C.): 1.46E+04 p/s
- Flux (Balb-C mice [3]; Intramuscular, 2 hours): 4.65E+06 p/s
- Flux (Balb-C mice [3]; Intramuscular, 8 hours): 3.64E+06 p/s
- Flux (Balb-C mice [3]; Intramuscular, 24 hours): 1.22E+07 p/s
- Flux (Balb-C mice [3]; Intramuscular, 48 hours): 1.01E+07 p/s
- Flux (Balb-C mice [3]; Intramuscular, 72 hours): 8.59E+06 p/s
- Flux (Balb-C mice [3]; Intramuscular, 96 hours): 2.70E+06 p/s
- Flux (Balb-C mice [3]; Intramuscular, 120 hours): 1.60E+06 p/s
- Flux (Balb-C mice [3]; Intramuscular, 144 hours): 2.19E+06 p/s
- Flux (Balb-C mice [3]; Subcutaneous, 2 hours): 4.54E+06 p/s
- Flux (Balb-C mice [3]; Subcutaneous, 8 hours): 8.75E+05 p/s
- Flux (Balb-C mice [3]; Subcutaneous, 24 hours): 5.49E+06 p/s
- Flux (Balb-C mice [3]; Subcutaneous, 48 hours): 1.77E+06 p/s
- Flux (Balb-C mice [3]; Subcutaneous, 72 hours): 8.00E+05 p/s
- Flux (Balb-C mice [3]; Subcutaneous, 96 hours): 5.33E+05 p/s
- Flux (Balb-C mice [3]; Subcutaneous, 120 hours): 4.09E+05 p/s
- expression greater than an order of magnitude above background out to (Balb-C mice [4]): 480 h

B1: FGF21 modified mRNA: Fibroblast Growth Factor 21 mRNA, SEQ ID NO: 24, 5-methylcytosine and 1-methylpseudouridine, in PBS (nucleic acid)
chain: GGGAAAUAAGAGAGAAAAGAAGAGUAAGAAGAAAUAUAAGAGCCACCAUGGACUCGGACGAGACCGGGUUCGAGCACUCAGGACUGUGGGUUUCUGUGCUGGCUGGUCUUCUGCUGGGAGCCUGCCAGGCACACCCCAUCCCUGACUCCAGUCCUCUCCUGCAAUUCGGGGGCCAAGUCCGGCAGCGGUACCUCUACACAGAUGAUGCCCAGCAGACAGAAGCCCACCUGGAGAUCAGGGAGGAUGGGACGGUGGGGGGCGCUGCUGACCAGAGCCCCGAAAGUCUCCUGCAGCUGAAAGCCUUGAAGCCGGGAGUUAUUCAAAUCUUGGGAGUCAAGACAUCCAGGUUCCUGUGCCAGCGGCCAGAUGGGGCCCUGUAUGGAUCGCUCCACUUUGACCCUGAGGCCUGCAGCUUCCGGGAGCUGCUUCUUGAGGACGGAUACAAUGUUUACCAGUCCGAAGCCCACGGCCUCCCGCUGCACCUGCCAGGGAACAAGUCCCCACACCGGGACCCUGCACCCCGAGGACCAGCUCGCUUCCUGCCACUACCAGGCCUGCCCCCCGCACCCCCGGAGCCACCCGGAAUCCUGGCCCCCCAGCCCCCCGAUGUGGGCUCCUCGGACCCUCUGAGCAUGGUGGGACCUUCCCAGGGCCGAAGCCCCAGCUACGCUUCCUGAUAAUAGGCUGGAGCCUCGGUGGCCAUGCUUCUUGCCCCUUGGGCCUCCCCCCAGCCCCUCCUCCCCUUCCUGCACCCGUACCCCCGUGGUCUUUGAAUAAAGUCUGAGUGGGCGGC
modifications: 5-methylcytosine, 1-methylpseudouridine
- protein production with vs without electroporation (Balb-C mice [5]): increase protein production

Source: patent US20190142971A1, “FORMULATION AND DELIVERY OF MODIFIED NUCLEOSIDE, NUCLEOTIDE, AND NUCLEIC ACID COMPOSITIONS” (ModernaTX, Inc., priority 2013, published 2019)
